According to patent US20100036088A1, “Selective poly-N-substituted glycine antibiotics” (priority 2008, published 2010):
pIC50: −log10 of the molar value. In brackets after ≈: the same amount, converted by molar mass. Numbered stars: 1 amine (or outer) side, 2 acyl side, 3 side chain; on linkers, the order of the positions; unused ones are H or OH. Square brackets hold non-standard residues; d marks the D form. Peptide text beside a SMILES is read from it. X2 = CCC[C@H](C)N(CC(=O)[*:2])[*:1]; Nspe = C[C@H](NCC(=O)O)c1ccccc1; Nphe = O=C(O)CNCc1ccccc1; Nlys = NCCCCNCC(=O)O

Experiments:
human erythrocytes = experiment: Hemolysis assay; assay type: cell-based
Method in brief: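 Peptoid serial dilutions in PBS pH 7.4 were combined with an equal volume of 20 vol % washed human red cells (heparinised blood) for 1 h at 37 °C. After dilution and pelleting at 1200 g, released haemoglobin in supernatant was read at A350, scaled between PBS and 0.2 vol % Triton X-100 controls.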

B. subtilis (ATCC 6633) = assay type: cell-based; conditions: ATCC 6633
Method in brief: (§1)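 MICs by broth microdilution per CLSI M7-A6 in cation-adjusted Mueller-Hinton broth, using 2:1 serial dilutions of peptoid and a bacterial inoculum of 1×10^6 CFU/mL. Values reproducible over three experiments, each with two parallel trials.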

E. coli (ATCC 35218) = assay type: cell-based; conditions: ATCC 35218
Method in brief: as §1

[1] = MTS assay, metabolic inhibition; assay type: cell-based, mouse
Method in brief: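 NIH/3T3 cells seeded at 5,000 per well, grown a day, then exposed to serially diluted peptoids in HBSS together with MTS reagent. Absorbance at 490 nm read after 3 hours at 37° C.; mean of six replicates.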

[2] = test system: Enterobacter aerogenes ATCC 35029; assay type: cell-based; conditions: ATCC 35029
Procedure: (§2) Antibacterial assays. MICs were determined according to CLSI M7-A6 protocols in a 96-well microtiter plate. In test wells, 50 μL bacterial inoculum (5×10^5 CFU/ml) in Mueller-Hinton broth (MHB) was added to 50 μL peptoid solution in MHB (prepared by 1:2 serial dilutions). Positive controls contained 50 μL inoculum and 50 μL MHB without peptoid. […] MIC values reported were reproducible between three independent experimental replicates, each consisting of two parallel trials. Broad-spectrum antimicrobial susceptibility testing was performed against BSL2 pathogens by Nova Biologicals, Inc. (Conroe, Tex.).
(§3) Broad-spectrum antibacterial assays. MICs of compounds were determined by microdilution procedure in Mueller-Hinton broth (MHB) in accordance with CLSI M7-A6 protocols in a manner similar to that described for the screen antibacterial assays. Inoculated microtiter plates were incubated at 35° C. for 24 hours prior to the result being recorded. Four ATCC strains that were used as standards are recommended by CLSI: Pseudomonas aeruginosa ATCC 27853, Escherichia coli ATCC 25922, Staphylococcus aureus ATCC 29213 and Enterococcus faecalis ATCC 29212. Other strains from the ATCC collection include Proteus vulgaris ATCC 49132, Proteus mirabilis ATCC 35659, Klebsiella pneumoniae ATCC 33495, Enterobacter aerogenes ATCC 35029 and Serratia marcescens ATCC 13880. S. aureus NRS100 (COL) is a well characterized methicillian-resistant S. aureus (MRSA) strain. The strains S. aureus VAN1 and S. aureus VAN2, vancomycin-resistant MRSA strains that were isolated in Michigan and Pennsylvania, were the first vancomycin-resistant strains clinically isolated. S. aureus NRS119 and S. aureus NRS120 are linezolid-resistant isolates from the Network on Antimicrobial Resistance in S. aureus (NARSA) collection. E. faecalis 99 and E. faecium 106 are vancomycin-resistant enterococcal strains.

Enterococcus faecalis 99 = assay type: cell-based; conditions: 99
Procedure: as §2, §3

[3] = test system: Enterococcus faecalis ATCC 29212; assay type: cell-based; conditions: ATCC 29212
Procedure: as §2, §3

Enterococcus faecium 106 = assay type: cell-based; conditions: 106
Procedure: as §2, §3

[4] = test system: Escherichia coli ATCC 25922; assay type: cell-based; conditions: ATCC 25922
Procedure: as §2, §3

[5] = test system: Klebsiella pneumoniae ATCC 33495; assay type: cell-based; conditions: ATCC 33495
Procedure: as §2, §3

[6] = test system: Proteus mirabilis ATCC 35659; assay type: cell-based; conditions: ATCC 35659
Procedure: as §2, §3

[7] = test system: Proteus vulgaris ATCC 49132; assay type: cell-based; conditions: ATCC 49132
Procedure: as §2, §3

[8] = test system: Pseudomonas aeruginosa ATCC 27853; assay type: cell-based; conditions: ATCC 27853
Procedure: as §2, §3

[9] = test system: Serratia marcescens ATCC 13880; assay type: cell-based; conditions: ATCC 13880
Procedure: as §2, §3

[10] = test system: Staphylococcus aureus ATCC 29213; assay type: cell-based; conditions: ATCC 29213
Procedure: as §2, §3

[11] = test system: Staphylococcus aureus NRS100 (COL); assay type: cell-based; conditions: NRS100 (COL)
Procedure: as §2, §3

[12] = test system: Staphylococcus aureus NRS119; assay type: cell-based; conditions: NRS119
Procedure: as §2, §3

[13] = test system: Staphylococcus aureus NRS120; assay type: cell-based; conditions: NRS120
Procedure: as §2, §3

[14] = test system: Staphylococcus aureus VAN1; assay type: cell-based; conditions: VAN1
Procedure: as §2, §3

[15] = test system: Staphylococcus aureus VAN2; assay type: cell-based; conditions: VAN2
Procedure: as §2, §3

[16] = RP-HPLC elution solvent composition as measure of molecular hydrophobicity; assay type: physicochemical; conditions: Table 1; percent acetonitrile in water, 0.1% (v/v) TFA at HPLC elution
From the text: An initial set of 15 ampetoid analogs was synthesized to determine whether peptoids are affected by structural and sequence modifications in a manner consistent with AMP activities. The designs for ampetoids in this library were derived from two antibacterial and selective amphipathic dodecamers, 1 and 2. Peptoid 1 [H-(Nlys-Nspe-Nspe)4—NH2] is composed of 2/3 Nspe, the peptoid analog of phenylalanine, and 1/3 Nlys, the peptoid analog of lysine (see FIG. 1 for the structures of representative peptoid monomers and corresponding N-substituents). Peptoid 2 [H-(Nlys-Nssb-Nspe)4—NH2] contains 1/3 isoleucine-like Nssb monomers in place of Nspe. The variant sequences were designed to effect changes in chirality, length, hydrophobicity, charge, and amphipathicity. All of these compounds were tested for antibacterial activity against representative BSL1 Gram-negative (E. coli JM109) and Gram-positive (B. subtilis BR151) bacterial strains. As an initial measure of selectivity, the lytic activity of the peptoids was determined against human erythrocytes. Table 1 summarizes the sequences synthesized, the solvent composition at RP-HPLC elution as a relative measure of molecular hydrophobicity, and antibacterial and hemolytic activities.
Following synthesis, peptoid oligomers can be cleaved from the resin, simultaneously removing the tert-butoxycarbonyl (Boc) protecting group from Nlys residues, by treatment with 10 ml 2,2,2-trifluoroacetic acid (TFA)/triisopropylsilane/H2O (95:2.5:2.5 by volume) for 30 min. The cleavage mixture is then diluted with 25 ml 50% aqueous acetonitrile, frozen, and lyophilized. Dilution and lyophilization is repeated twice more in order to remove excess TFA. Subsequent to cleavage, peptoids are each purified to >97% homogeneity by preparative scale reversed-phase HPLC using a Waters Prep LC 4000 system, with Waters 2487 dual-wavelength UV detection, and gradient elution (solvent A, 0.1 vol % trifluoroacetic acid (TFA) in water; solvent B, 0.1 vol % TFA in acetonitrile) through a Vydac (Hysperia, Calif.) 214TP101550 C4 peptide/protein column (10-15 μm, 300 Å, 5×25 cm). Following prep HPLC, peptoid purities and crude yields were determined from analytical scale HPLC, performed with a Waters 2695 Separations Module with a Waters 2487 dual-wavelength UV detector and gradient elution (solvent A, 0.1 vol % TFA in water; solvent B, 0.1 vol % TFA in acetonitrile) through a Vydac C4 214TP53 peptide/protein column (5 μm, 300 Å, 3.2×250 mm). The precise gradient employed for HPLC depended on the identity and hydrophobicity of the oligomer in question. All analytical HPLC was performed at 0.5 ml/min flow and 58° C. Preparative HPLC was performed at 50 ml/min flow and room temperature.

SMILES | HD10 (human erythrocytes) [µM] | HD50 (human erythrocytes) [µM] | B. subtilis MIC (B. subtilis (ATCC 6633)) [µM] | E. coli MIC (E. coli (ATCC 35218)) [µM] | pIC50 [1] | MIC Enterobacter aerogenes ATCC 35029 [2] [µM] | MIC Enterococcus faecalis 99 (Enterococcus faecalis 99) [µM] | MIC Enterococcus faecalis ATCC 29212 [3] [µM] | MIC Enterococcus faecium 106 (Enterococcus faecium 106) [µM] | MIC Escherichia coli ATCC 25922 [4] [µM] | MIC Klebsiella pneumoniae ATCC 33495 [5] [µM] | MIC P. mirabilis ATCC 35659 [6] [µg/mL] | MIC Proteus mirabilis ATCC 35659 [6] [µM] | MIC Proteus vulgaris ATCC 49132 [7] [µM] | MIC Pseudomonas aeruginosa ATCC 27853 [8] [µM] | MIC S. marcescens ATCC 13880 [9] [µg/mL] | MIC Serratia marcescens ATCC 13880 [9] [µM] | MIC Staphylococcus aureus ATCC 29213 [10] [µM] | MIC Staphylococcus aureus NRS100 (COL) [11] [µM] | MIC Staphylococcus aureus NRS119 [12] [µM] | other results
C[C@@H](c1ccccc1)N(CC(N)=O)C(=O)CN(C(=O)CN(CCCCN)C(=O)[C@@H]1CCCN1C(=O)CN(C(=O)CN(CCCCN)C(=O)CN(C(=O)CN(C(=O)CN(CCCCN)C(=O)CN(C(=O)CN(C(=O)CNCCCCN)[C@@H](C)c1ccccc1)[C@@H](C)c1ccccc1)[C@@H](C)c1ccccc1)[C@@H](C)c1ccccc1)[C@@H](C)c1ccccc1)[C@@H](C)c1ccccc1 [1-Pro9, H-(Nlys-Nspe2)2-Nlys-Nspe-L-Pro-(Nlys-Nspe2)-NH2] (H-[Nlys][Nspe][Nspe][Nlys][Nspe][Nspe][Nlys][Nspe]P[Nlys][Nspe][Nspe]-NH2) | 165 | > 200 | 1.6 | 12.5 | 4.62 | 36.5 (≈ 64.1 µg/mL) | 36.5 (≈ 64.1 µg/mL) | 4.6 (≈ 8.07 µg/mL) | 2.3 (≈ 4.04 µg/mL) | 4.6 (≈ 8.07 µg/mL) | 9.1 (≈ 16 µg/mL) | >128 | >72.9 | 36.5 (≈ 64.1 µg/mL) | 18.2 (≈ 31.9 µg/mL) | >128 | >72.9 | 9.1 (≈ 16 µg/mL) | 4.6 (≈ 8.07 µg/mL) | 9.1 (≈ 16 µg/mL) | MIC Staphylococcus aureus NRS120 [13]: 9.1 µM (≈ 16 µg/mL); MIC Staphylococcus aureus VAN1 [14]: 4.6 µM (≈ 8.07 µg/mL); MIC Staphylococcus aureus VAN2 [15]: 4.6 µM (≈ 8.07 µg/mL)
C[C@@H](c1ccccc1)N(CC(N)=O)C(=O)CN(Cc1ccccc1)C(=O)CN(CCCCN)C(=O)CN(C(=O)CN(Cc1ccccc1)C(=O)CN(CCCCN)C(=O)CN(C(=O)CN(Cc1ccccc1)C(=O)CN(CCCCN)C(=O)CN(C(=O)CN(Cc1ccccc1)C(=O)CNCCCCN)[C@@H](C)c1ccccc1)[C@@H](C)c1ccccc1)[C@@H](C)c1ccccc1 [1-Npm2,5,8,11, H-(Nlys-Npm-Nspe)4-NH2] (H-[Nlys][Nphe][Nspe][Nlys][Nphe][Nspe][Nlys][Nphe][Nspe][Nlys][Nphe][Nspe]-NH2) | 87 | > 200 | 1.6 | 6.3 | 5.17 | 36.3 (≈ 64 µg/mL) | 36.3 (≈ 64 µg/mL) | 4.5 (≈ 7.93 µg/mL) | 2.3 (≈ 4.06 µg/mL) | 4.5 (≈ 7.93 µg/mL) | 9.1 (≈ 16 µg/mL) | >128 | >72.6 | 36.3 (≈ 64 µg/mL) | 36.3 (≈ 64 µg/mL) | >128 | >72.6 | 4.5 (≈ 7.93 µg/mL) | 4.5 (≈ 7.93 µg/mL) | 9.1 (≈ 16 µg/mL) | MIC Staphylococcus aureus NRS120 [13]: 9.1 µM (≈ 16 µg/mL); MIC Staphylococcus aureus VAN1 [14]: 4.5 µM (≈ 7.93 µg/mL); MIC Staphylococcus aureus VAN2 [15]: 4.5 µM (≈ 7.93 µg/mL)
CCC[C@H](C)N(CC(=O)N(CC(N)=O)[C@@H](C)c1ccccc1)C(=O)CN(CCCCN)C(=O)CN(C(=O)CN(C(=O)CN(CCCCN)C(=O)CN(C(=O)CN(C(=O)CN(CCCCN)C(=O)CN(C(=O)CN(C(=O)CNCCCCN)[C@@H](C)CCC)[C@@H](C)c1ccccc1)[C@@H](C)CCC)[C@@H](C)c1ccccc1)[C@@H](C)CCC)[C@@H](C)c1ccccc1 [2-Nsap2,5,8,11] (H-[Nlys][X2][Nspe][Nlys][X2][Nspe][Nlys][X2][Nspe][Nlys][X2][Nspe]-NH2) |  |  |  |  |  |  |  |  |  |  |  |  |  |  |  |  |  |  |  |  | HD10 (10% hemolytic dose) (human erythrocytes; red cells of human, 1 h): >120/>120 μM; HD50 (50% hemolytic dose) (human erythrocytes; red cells of human, 1 h): >120/>120 μM; HPLC elution solvent [16]: 48%
